# Measurements taken from patent US20090123389A1, “Methods for modulating Th17 cell development in the treatment and prevention of cellulite” (priority 2007, published 2009).
# “And” between values parts separate entries of the source, which are not always exact repeats. Equal values may be shown once.
# Key:
# TSK mouse = conditions: 1 μg HF/mouse IP daily; cited from earlier work
# [1] = system: Xenopus feeding stage tadpoles; experiment: Toxicity in Xenopus feeding stage tadpoles; conditions: 400 nM HF, treatment for 7 days
# SV-MES mesangial cells = experiment: eIF2α phosphorylation in SV-MES mesangial cells (western blot); type: cell-based; conditions: 20 nM HF, 2 hours
# Experimental: SV-MES mesangial cells were stimulated for 2 hours with DMSO, 20 nM MAZ1310 or 20 nM HF. Whole cell lysates were analyzed for expression of phosphorylated or total eIF2α or GCN2 by western blotting.
# Western blotting: Whole cell lysates were generated from T cells activated for the indicated times. For STAT3 and Smad2/3 western blots cells were harvested, washed in PBS and lysed in 50 mM Tris, pH 7.4, 0.1% SDS, 1% Triton-×100, 140 mM NaCl, 1 mM EDTA, 1 mM EGTA supplemented with protease inhibitors tablets (Roche—Germany), 1 mM NaF and 1 mM Na3VO4. For eIF2α and ATF4 western blots, cells were harvested as above and lysed in 50 mM Tris, pH 7.4, 2% SDS, 20% glycerol and 2 mM EDTA supplemented with protease and phosphatase inhibitors as above. All lysates were cleared via centrifugation and 15-30 μg of protein was resolved by SDS-PAGE. Protein was transferred to nitrocellulose membranes, blocked and blotted using specific antibodies. Antibodies used for western blot analysis were anti-phospho-Smad2, anti-STAT3 (pY705), anti-STAT3, anti-eIF2α^pS51, anti-eIF2α, anti-GCN2^pT898, anti-GCN2 (all from cell signaling technology, Danvers, Mass.). Anti-ATF4/CREB2 and anti-β-actin were purchased from Santa Cruz biotechnology (Santa Cruz, Calif.). […]
# [2] = system: unfolded protein response (Xbp-1 splicing); experiment: Xbp-1 splicing / ER stress response in activated T cells
# CD4+ CD25− T cells = experiment: Foxp3 (Treg marker) expression in TGFβ/IL-6 treated T cells; type: cell-based, mouse
# Experimental: Low doses of halofuginone (HF) were tested to determine the ability of HF to enhance Treg differentiation, while suppressing Th17 differentiation. Naïve CD4+ T cells (CD4+ CD25−) were isolated from the spleen and peripheral lymph nodes of C57B/6 mice. T cells were then activated using anti-CD3 (0.3 μg/ml) and anti-CD28 (0.5 μg/ml) antibodies either in media alone (row 1, 4), TGFβ alone (3 ng/ml—row 2, 5) or TGFβ (3 ng/ml) plus IL-6 (30 ng/ml) (row 3, 6). […] T cells were cultured for 3 days and CD25 and Foxp3 expression (Treg marker genes) was determine by FACS staining and flow cytometric analyses. Simultaneously, T cells were harvested and re-stimulated for 4 hours using phorbol myristic acetate (PMA; 10 nM), Ionomycin (1 μM) and cytokine secretion was prevented using brefeldin A (20 μg/ml). Following stimulation, the production of IL-17 and IFNγ were determined by intracellular staining and analyzed via flow cytometry. […]
# FACS analyses and sorting: All cell surface staining was performed in FACS buffer (PBS/2% FCS/0.1% NaN3) and antibodies were incubated with cells on ice for 20-30 minutes. […] All FACS data was acquired on a FACSCalibur flow cytometer (BD Pharmingen) and analyzed using FlowJo software (Treestar, Inc., Ashland, Oreg.). […]
# [3] = cited from earlier work
compound,measurement,setting,value
"O=C(CC1NCCCC1O)Cn1cnc2cc(Br)c(Cl)cc2c1=O (racemic) [HF, 7-bromo-6-chloro-3-[3-(3-hydroxy-2-piperidinyl)-2-oxopropyl]-4(3H)-quinazolinone]",normal skin thickness,TSK mouse,did not reduce
same,skin thickness of TSK mouse,TSK mouse,reduced skin thickness of a TSK mouse to that of a normal mouse
same,toxic effects in TSK model,TSK mouse,no toxic effects
same,toxic effects in tadpoles,[1],does not have detectable toxic effects
same,eIF2α phosphorylation in cultured fibroblasts,SV-MES mesangial cells,increased eIF2α phosphorylation
same,"expression of hallmark ER stress response genes (GRP78/BiP, calreticulin and others)",[2],did not induce
same,Xbp-1 splicing,"[2]; tunicamycin 1 μg/ml or 10 nM HF, 4 hours",without promoting Xbp-1 splicing
same,Foxp3 expression of T cells differentiated in the presence of HF,"CD4+ CD25− T cells; 10 nM HF, TGFβ plus IL-6, day 3",enhanced Foxp3 expression
same,HF concentration that increased expression of the Treg marker FoxP3,"CD4+ CD25− T cells; TGFβ/IL-6 treated T-cells, 3 days",2.5 to 10 nM and 2.2 to 10 nM
same,peak plasma concentration,[3]; oral 3.5 mg/day,3 ng/ml and ~8 nM
same,dose at which dose limiting toxicity (nausea and vomiting) occurred,[3]; oral,3.5 mg/day
same,recommended tolerated dose for chronic treatment,[3]; oral,0.5 mg/day
